Read-outs that look alike come from different tables or passages of the source.
Experiments:
V30M-TTR = molecular target: T1, V30M-TTR (Homo sapiens, UniProt P02766, V50M); assay: Acid-mediated V30M-TTR fibril formation assay (turbidity at 400 nm); format: biochemical; conditions: pH 4.4, 72 hours, 37° C.; for % Fibril Formation 7.2 μM (V30M-TTR): compound 7.2 μM; for % Fibril Formation […] (V30M-TTR): compound […]
T1 construct: composed of 127-residue β-sheet-rich subunits; made in house
Description: Compounds (5 μL of 1.44 mM solution in DMSO) were added to 495 μL of TTR (7.2 μM, in 10 mM sodium phosphate, 100 mM KCl, 1 mM EDTA, pH 7.0). The mixtures were vortexed and incubated (maintained) for 18 hours at 25° C. […] The solutions were vortexed to evenly distribute any precipitate, and turbidity was measured at 400 nm using a Hewlett Packard model 8453 UV-VIS Spectrophotometer.

[1] = molecular target: T2, TTR in human blood plasma (Homo sapiens, UniProt P02766); assay: Modification of TTR in human blood plasma (immunocapture, RP-HPLC); format: binding; conditions: compound 10.8 μM, 24 hours, 37° C.; maximum 50%
T2 construct: RP-HPLC analysis of TTR captured from human plasma; from tissue; host or cells: human blood plasma
Description: Compounds 1-4 (10.8 μM) were incubated for 24 hours at 37° C. with human plasma, wherein the TTR concentration is 3.6-5.4 μM.
Furthermore, compound A2 was evaluated to determine its ability to bind selectively to and then react chemoselectively with TTR over the 4000+ other proteins in human blood plasma. Compound A2 (10.8 μM) was incubated with human blood plasma (TTR concentration is 3.6-5.4 μM) for 24 hours at 37° C. before immunoisolating human TTR using a Sepharose® resin-conjugated anti-TTR polyclonal antibody [Purkey et al., Proc. Natl. Acad. Sci. U.S.A. 2001, 98, 5566-5571].
The modification ratio of TTR by kinetic stabilizers in human plasma was evaluated as described [Purkey et al., Proc. Natl. Acad. Sci. U.S.A. 98:5566-5571 (2001)] with minor modifications. Briefly, compounds (7.5 μL of 1.44 mM solution in DMSO) were added to 1 mL of human plasma and incubated at 37° C. for 24 hours on a rocker (30 rpm). A 1:1 (v/v) slurry of unfunctionalized Sepharose® resin in 10 mM Tris, 140 mM NaCl, pH 8.0 (TSA) was added and the solutions were incubated for 1 hour at 4° C. on a rocker plate, followed by brief centrifugation.
Two 400 μL aliquots of the supernatants were added to 300 μL of 1:1 (v:v) slurry of anti-TTR antibody-conjugated Sepharose® resin in TSA. The solutions were gently rocked at 4° C. for 20 minutes (30 rpm), centrifuged, and supernatants were removed. The resin was washed by shaking for 1 minute in 1 mL of TSA solution containing 0.05% saponin (three times) and then 1 mL of TSA solution (twice). The TTR and bound test compound were dissociated from the resin by adding 155 μL of triethylamine (100 mM, pH 11.5) and vortexing for 1 minute. After centrifugation, 135 μL of solution containing test compound and TTR was analyzed by RP-HPLC as described above except that the linear gradients were run from 100:0 to 0:100 A:B for 45 minutes.

WT-TTR [2] = molecular target: T3, WT-TTR (Homo sapiens, UniProt P02766); assay: Acid-mediated WT-TTR fibril formation assay (turbidity at 400 nm); format: biochemical; conditions: for IC50: % fibril formation after 72 hours, read-out: IC50 (apparent), inhibition of WT-TTR amyloidogenesis; for % Fibril Formation 7.2 μM (WT-TTR): compound 7.2 μM; for % Fibril Formation 7.2 μM (WT-TTR) / % Fibril Formation […] (WT-TTR): pH 4.4, 72 hours, 37° C.; for % Fibril Formation […] (WT-TTR): compound […]
T3 construct: composed of 127-residue β-sheet-rich subunits; made in house; host or cells: E. coli
Description: The mixtures were vortexed and incubated (maintained) for 18 hours at 25° C.

K15A-TTR [3] = molecular target: T4, K15A-TTR (Homo sapiens, UniProt P02766, K35A); assay: RP-HPLC analysis of reaction with K15A-TTR homotetramer; format: binding
T4 construct: composed of 127-residue β-sheet-rich subunits; made in house
Source text: A strictly analogous study performed with the K15A homotetrameric TTR mutant confirmed that K15 was essential for the observed chemoselective reaction between TTR and Compounds […] (FIG. 1A, bottom trace). […] However, it is important to note that Compounds 1-3 were only slightly less chemoselective (<5% reaction with K15A).
The ability of compounds A1 and A2, auxochromic analogs of previously discussed stilbenes [Klabunde et al., Nat. Struct. Biol. 2000, 7, 312-321; Connelly et al., Curr. Opin. Struc. Biol. 2010, 20, 54-62; Johnson et al., J. Med. Chem. 2008, 51, 6348-6358; Choi et al., J. Am. Chem. Soc. 2010, 132, 1359-1370; Choi et al., Nat. Chem. Biol. 2010, 6, 133-139; and Baures et al., Bioorg. Med. Chem. 1998, 6, 1389-1401] to form a chemoselective amide bond with the K15 residue of TTR was assessed by reverse-phase-HPLC and liquid chromatography-mass spectrometry analysis. […] The binding of the covalent modifier A2 to K15A-TTR (in the absence of amide bond conjugation) was confirmed by incubating A2 with K15A-TTR in phosphate buffer (pH 7) followed by K15A immunoisolation using a Sepharose® resin-conjugated anti-TTR polyclonal antibody [Purkey et al., Proc. Natl. Acad. Sci. U.S.A. 2001, 98, 5566-5571].
Recombinant WT-TTR was expressed as described previously [Lashuel et al., Biochemistry 38:13560-13573 (1999)]. For analysis of test compounds with TTR, each compound (1.5 μL in DMSO, 1.44 mM) was added to 300 μL of WT-TTR or K15A mutant TTR (3.6 μM, 10 mM sodium phosphate, 100 mM KCl, 1 mM EDTA, pH 7.0). The samples were vortexed, and incubated for 18 hours at 25° C. Reverse phase high performance liquid chromatography (RP-HPLC) was performed on a Water 600 E multi-solvent delivery system, using a Waters 486 tunable absorbance detector, a 717 autosampler, and a ThermoHypersil Keystone Betabasic-18 column μ150 Å pore size, 3 μm particle size, and mobile phase A; 0.1% TFA in 95% H2O+5% CH3CN and mobile phase B, 0.1% TFA in 95% CH3CN+5% H2O). Linear gradients were run from 100:0 to 0:100 A:B for 27 minutes.

K15A-TTR [4] = molecular target: T4, K15A-TTR; assay: Fluorimetric assay with recombinant K15A-TTR; format: binding; conditions: 24 hour incubation
Description: [The source words this procedure for another variant and says it was used here with some conditions changed.] The excitation spectra are shown with dotted traces (λmax=328 nm), and emission spectra are adjacently (λmax=384 nm). Very low fluorescence resulted from 328 nm excitation of stilbene Compounds 4 or 2 alone in buffer (FIGS. 4A and 4B; traces substantially on the X-axis).
WT-TTR was expressed in an E. coli expression system and purified as described previously. [Lashuel et al., Biochemistry 1999, 38, 13560-13573] The covalent TTR modifiers (A1 or A2) or the non-covalent TTR ligand B2 (5 μL of a 1.44 mM solution in DMSO, final concentration: 7.2 μM) were added to 1 mL of a solution of WT-TTR homotetramer (0.2 mg/mL, 3.6 μM) in 10 mM phosphate, 100 mM KCl and 1 mM EDTA (pH 7.0 phosphate buffer) in a 2 mL Eppendorf tube. The samples were vortexed, and incubated for 18 h at 25° C. The fluorescence changes were monitored using a Varian Cary 50 spectrofluorometer at 20° C. in a 1 cm path length quartz cell. The excitation slit was set at 5 nm and the emission slit was set at […]. The samples were excited at 328 nm and the emission spectra were collected from 350 to 550 nm.
WT-TTR was expressed and purified from an E. coli expression system as described previously. [Lashuel et al., Biochemistry 1999, 38:13560]. The covalent modifiers (Compounds 4 or 2) or the non-covalent TTR ligand Compound B2 (5 μL of a 1.44 mM solution in DMSO) were added to 1 mL of a solution of WT-TTR (0.2 mg/mL, 3.6 μM) in 10 mM phosphate, 100 mM KCl and 1 mM EDTA (pH 7.0) in a 2 mL Eppendorf tube. The samples were vortexed, and incubated for 18 hours at 25° C. The fluorescence changes were monitored using a Varian Cary 50 spectrofluorometer at 20° C. in a 1 cm path length quartz cell. The excitation slits was set at 5 nm and the emission slits was set at […]. The samples were excited at 328 nm and the emission spectra were collected from 330 to 550 nm (FIG. 4). The time-dependent fluorescence changes were monitored in similar manner (FIG. 5).

WT-TTR [5] = molecular target: T3, WT-TTR; assay: Fluorimetric assay with recombinant WT-TTR; format: binding
Description: WT-TTR was expressed in an E. coli expression system and purified as described previously. […] The samples were vortexed, and incubated for 18 h at 25° C. […] The excitation slit was set at 5 nm and the emission slit was set at […]. The samples were excited at 328 nm and the emission spectra were collected from 350 to 550 nm. WT-TTR was expressed and purified from an E. coli expression system as described previously. [Lashuel et al., Biochemistry 1999, 38:13560]. […] The samples were vortexed, and incubated for 18 hours at 25° C. […] The excitation slits was set at 5 nm and the emission slits was set at […]. The samples were excited at 328 nm and the emission spectra were collected from 330 to 550 nm (FIG. 4). The time-dependent fluorescence changes were monitored in similar manner (FIG. 5).

SMILES	% Fibril Formation 7.2 μM (V30M-TTR) (V30M-TTR) [%]	% Fibril Formation […] (V30M-TTR) (V30M-TTR) [%]	% Modification of TTR subunits in Human Blood Plasma [1]	IC50 (WT-TTR [2]; WT-TTR 3.6 μM) [nM]	% Fibril Formation 7.2 μM (WT-TTR) (WT-TTR [2]; WT-TTR […]) [%]	% Fibril Formation […] (WT-TTR) (WT-TTR [2]; WT-TTR […]) [%]	reaction with K15A-TTR (in words) (K15A-TTR [3])	also measured
O=C(Sc1ccccc1)c1cccc(/C=C/c2cc(Br)c(O)c(Br)c2)c1 [Compound 1, (E)-S-phenyl 3-(3,5-dibromo-4-hydroxystyryl)benzothioate]	3	17	36% (±0.4%)	1960 to 2260	2	12		IC50 (WT-TTR [2]; WT-TTR […]): 2000 nM
Cc1cc(/C=C/c2ccc(C(=O)Oc3ccccc3[N+](=O)[O-])cc2)cc(C)c1O [Compound 6]							more non-chemoselective conjugation	
Cc1cc(/C=C/c2cccc(C(=O)Oc3ccccc3[N+](=O)[O-])c2)cc(C)c1O [Compound 3, (E)-2-nitrophenyl 3-(4-hydroxy-3,5-dimethylstyryl)benzoate]	3	33	49% (±0.7%)	1960 to 2260	4	21		
CCCNC(=O)c1cccc(/C=C/c2cc(C)c(O)c(C)c2)c1 [Compound B1, (E)-3-(4-hydroxy-3,5-dimethylstyryl)-N-propylbenzamide]								increase in fluorescence intensity upon binding to K15A-TTR (K15A-TTR [4]): about 190 fold; time for binding to WT-TTR (WT-TTR [5]): ≤ 1 min; increase in fluorescence intensity with WT-TTR vs compound alone in buffer (WT-TTR [5]; WT-TTR […], compound 7.2 μM, 24 hours): about 400 fold; increase in fluorescence intensity with WT-TTR within 1 minute vs compound alone in buffer (WT-TTR [5]; time-dependent emission spectra): about 360 fold
Cc1cc(/C=C/c2cc(C(=O)Oc3ccc(F)cc3)cc(N(C)C)c2)cc(C)c1O [Compound A1, (E)-4-fluorophenyl 3-(dimethylamino)-5-(4-hydroxy-3,5-dimethylstyryl)benzoate]							no conjugation	fluorescence after incubation with WT-TTR (in words) (WT-TTR [5]; phosphate buffer pH 7, 18 hours): bright blue fluorescence

From patent US8703815B2, “Small molecules that covalently modify transthyretin” (The Scripps Research Institute, priority 2009, dated 2014)
